Measurements published in patent US10501425B2, “Microbiocidal oxadiazole derivatives” (SYNGENTA PARTICIPATIONS AG, priority 2015, dated 2019).

Legend:
[1] = test system: Puccinia recondita f. Sp. Tritici; test: Puccinia recondita f. sp. tritici / wheat / leaf disc preventative (brown rust); format: in vivo; settings: foliar, 200 ppm in the applied formulation, wheat leaf segments cv. Kanzler, preventative (inoculated 1 day after application), compared to untreated, read-out: disease control
Method in brief: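 Compound, diluted from DMSO solution into aqueous 0.025% Tween20, is sprayed at 200 ppm onto cut wheat segments (cv. Kanzler) placed on water agar. One day on, segments receive a fungal spore suspension and are incubated at 19° C., 75% rh, 12 h photoperiod, with % control vs untreated scored at 7–9 days.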

[2] = test system: Phakopsora pachyrhizi; test: Phakopsora pachyrhizi / soybean / leaf disc preventative (Asian soybean rust); format: in vivo; settings: foliar, 200 ppm in the applied formulation, soybean leaf disks, compared to untreated, read-out: disease control
Experimental: Leaf disks or leaf segments of various plant species are cut from plants grown in a greenhouse. The cut leaf disks or segments are placed in multiwell plates (24-well format) onto water agar. The leaf disks are sprayed with a test solution before (preventative) or after (curative) inoculation. Compounds to be tested are prepared as DMSO solutions (max. 10 mg/ml) which are diluted to the appropriate concentration with 0.025% Tween20 just before spraying. The inoculated leaf disks or segments are incubated under defined conditions (temperature, relative humidity, light, etc.) according to the respective test system. A single evaluation of disease level is carried out 3 to 14 days after inoculation, depending on the pathosystem. Percent disease control relative to the untreated check leaf disks or segments is then calculated.
Soybean leaf disks are placed on water agar in multiwell plates (24-well format) and sprayed with the formulated test compound diluted in water. One day after application leaf discs are inoculated by spraying a spore suspension on the lower leaf surface. After an incubation period in a climate cabinet of 24-36 hours in darkness at 20° C. and 75% rh leaf disc are kept at 20° C. with 12 h light/day and 75% rh. The activity of a compound is assessed as percent disease control compared to untreated when an appropriate level of disease damage appears in untreated check leaf disks (12 to 14 days after application).
The following compounds at 200 ppm in the applied formulation give at least 80% disease control in this test when compared to untreated control leaf disks under the same conditions, which show extensive disease development.

[3] = test system: Puccinia recondita f. Sp. Tritici; test: Puccinia recondita f. sp. tritici / wheat / leaf disc curative (brown rust); format: in vivo; settings: foliar, 24 h, 200 ppm in the applied formulation, wheat leaf segments cv. Kanzler, curative (applied 1 day after inoculation), compared to untreated, read-out: disease control
Method in brief: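 Compound applied 1 day after spore inoculation of wheat cv. Kanzler leaf segments on agar (dark, 19 °C, 75% RH before treatment). After further incubation under 12 h light/12 h dark at 19 °C and 75% RH, disease control relative to untreated segments rated 6–8 days post-application.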

[4] = test system: Glomerella lacenarium (Colletotrichum lagenarium); test: Glomerella lagenarium liquid culture / cucumber / preventative (anthracnose); format: cell-based; settings: Colletotrichum orbiculare; 20 ppm in the applied formulation; liquid culture (PDB), growth inhibition measured photometrically 3 to 4 days after application; compared to untreated; read-out: disease control
Method in brief: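 Conidia from cryogenic storage were mixed into potato dextrose broth. This was added to compound diluted from DMSO into 0.025% Tween20, tested at 20 ppm. Plates were incubated in the dark at 24 °C and 96% relative humidity, and growth was read photometrically after 2–7 days as % activity versus untreated check.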

CC(C)C(=O)NCc1ccc(-c2noc(C(F)(F)F)n2)cc1F [Compound 1.35, N-[[2-fluoro-4-[5-(trifluoromethyl)-1,2,4-oxadiazol-3-yl]phenyl]methyl]-2-methyl-propanamide]
≥ 80%: pest or weed control at 200 ppm [1] | pest or weed control at 200 ppm [2] | pest or weed control at 200 ppm [3] | inhibition of growth at 20 ppm [4]

CCCC(=O)NCc1ccc(-c2noc(C(F)(F)F)n2)cc1F [Compound 1.36, N-[[2-fluoro-4-[5-(trifluoromethyl)-1,2,4-oxadiazol-3-yl]phenyl]methyl]butanamide]
≥ 80%: pest or weed control at 200 ppm [1] | pest or weed control at 200 ppm [2] | pest or weed control at 200 ppm [3] | inhibition of growth at 20 ppm [4]

COCC(=O)NCc1ccc(-c2noc(C(F)(F)F)n2)cc1F [Compound 1.38, N-[[2-fluoro-4-[5-(trifluoromethyl)-1,2,4-oxadiazol-3-yl]phenyl]methyl]-2-methoxy-acetamide]
≥ 80%: pest or weed control at 200 ppm [1] | pest or weed control at 200 ppm [2] | pest or weed control at 200 ppm [3] | inhibition of growth at 20 ppm [4]

CCC(C)C(=O)NCc1ccc(-c2noc(C(F)(F)F)n2)c(F)c1 (centres unmarked) [Compound 1.39, N-[[3-fluoro-4-[5-(trifluoromethyl)-1,2,4-oxadiazol-3-yl]phenyl]methyl]-2-methyl-butanamide]
≥ 80%: pest or weed control at 200 ppm [1] | pest or weed control at 200 ppm [2] | pest or weed control at 200 ppm [3] | inhibition of growth at 20 ppm [4]

CCC(C)C(=O)NCc1ccc(-c2noc(C(F)(F)F)n2)cc1F (centres unmarked) [Compound 1.41, N-[[2-fluoro-4-[5-(trifluoromethyl)-1,2,4-oxadiazol-3-yl)phenyl]methyl]-2-methyl-butanamide]
≥ 80%: pest or weed control at 200 ppm [1] | pest or weed control at 200 ppm [2] | pest or weed control at 200 ppm [3] | inhibition of growth at 20 ppm [4]

O=C(CC(F)(F)F)NCc1ccc(-c2noc(C(F)(F)F)n2)c(F)c1 [Compound 1.44, 3,3,3-trifluoro-N-[[3-fluoro-4-[5-(trifluoromethyl)-1,2,4-oxadiazol-3-yl]phenyl]methyl]propanamide]
≥ 80%: pest or weed control at 200 ppm [1] | pest or weed control at 200 ppm [2] | pest or weed control at 200 ppm [3] | inhibition of growth at 20 ppm [4]

O=C(CC(F)(F)F)NCc1ccc(-c2noc(C(F)(F)F)n2)cc1F [Compound 1.46, 3,3,3-trifluoro-N-[[2-fluoro-4-[5-(trifluoromethyl)-1,2,4-oxadiazol-3-yl]phenyl]methyl]propanamide]
≥ 80%: pest or weed control at 200 ppm [1] | pest or weed control at 200 ppm [2] | pest or weed control at 200 ppm [3] | inhibition of growth at 20 ppm [4]

CC(=O)NCc1ccc(-c2noc(C(F)(F)F)n2)c(F)c1 [Compound 1.47, N-[[3-fluoro-4-[5-(trifluoromethyl)-1,2,4-oxadiazol-3-yl]phenyl]methyl]acetamide]
≥ 80%: pest or weed control at 200 ppm [1] | pest or weed control at 200 ppm [2] | pest or weed control at 200 ppm [3] | inhibition of growth at 20 ppm [4]

CC(=O)NCc1ccc(-c2noc(C(F)(F)F)n2)cc1F [Compound 1.48, N-[[2-fluoro-4-[5-(trifluoromethyl)-1,2,4-oxadiazol-3-yl]phenyl]methyl]acetamide]
≥ 80%: pest or weed control at 200 ppm [1] | pest or weed control at 200 ppm [2] | pest or weed control at 200 ppm [3] | inhibition of growth at 20 ppm [4]

CC(C)C(=O)NCc1ccc(-c2noc(C(F)(F)F)n2)c(F)c1F [Compound 1.49, N-[[2,3-difluoro-4-[5-(trifluoromethyl)-1,2,4-oxadiazol-3-yl]phenyl]methyl]-2-methyl-propanamide]
≥ 80%: pest or weed control at 200 ppm [1] | pest or weed control at 200 ppm [2] | pest or weed control at 200 ppm [3] | inhibition of growth at 20 ppm [4]

CCCC(=O)NCc1ccc(-c2noc(C(F)(F)F)n2)c(F)c1F [Compound 1.51, N-[[2,3-difluoro-4-[5-(trifluoromethyl)-1,2,4-oxadiazol-3-yl]phenyl]methyl]butanamide]
≥ 80%: pest or weed control at 200 ppm [1] | pest or weed control at 200 ppm [2] | pest or weed control at 200 ppm [3] | inhibition of growth at 20 ppm [4]

COCC(=O)NCc1ccc(-c2noc(C(F)(F)F)n2)c(F)c1F [Compound 1.56, N-[[2,3-difluoro-4-[5-(trifluoromethyl)-1,2,4-oxadiazol-3-yl]phenyl]methyl]-2-methoxy-acetamide]
≥ 80%: pest or weed control at 200 ppm [1] | pest or weed control at 200 ppm [2] | pest or weed control at 200 ppm [3] | inhibition of growth at 20 ppm [4]

O=C(CC(F)(F)F)NCc1ccc(-c2noc(C(F)(F)F)n2)c(F)c1F [Compound 1.63, N-[[2,3-difluoro-4-[5-(trifluoromethyl)-1,2,4-oxadiazol-3-yl]phenyl]methyl]-3,3,3-trifluoro-propanamide]
≥ 80%: pest or weed control at 200 ppm [1] | pest or weed control at 200 ppm [2] | pest or weed control at 200 ppm [3] | inhibition of growth at 20 ppm [4]

CC(=O)NCc1ccc(-c2noc(C(F)(F)F)n2)c(F)c1F [Compound 1.65, N-[[2,3-difluoro-4-[5-(trifluoromethyl)-1,2,4-oxadiazol-3-yl]phenyl]methyl]acetamide]
≥ 80%: pest or weed control at 200 ppm [1] | pest or weed control at 200 ppm [2] | pest or weed control at 200 ppm [3] | inhibition of growth at 20 ppm [4]

CC(C)C(=O)NCc1ccc(-c2noc(C(F)(F)F)n2)c(F)c1 [Compound 1.77, N-[[3-fluoro-4-[5-(trifluoromethyl)-1,2,4-oxadiazol-3-yl]phenyl]methyl]-2-methyl-propanamide]
≥ 80%: pest or weed control at 200 ppm [1] | pest or weed control at 200 ppm [2] | pest or weed control at 200 ppm [3] | inhibition of growth at 20 ppm [4]

CCCC(=O)NCc1ccc(-c2noc(C(F)(F)F)n2)c(F)c1 [Compound 1.78, N-[[3-fluoro-4-[5-(trifluoromethyl)-1,2,4-oxadiazol-3-yl]phenyl]methyl]butanamide]
≥ 80%: pest or weed control at 200 ppm [1] | pest or weed control at 200 ppm [2] | pest or weed control at 200 ppm [3] | inhibition of growth at 20 ppm [4]

COCC(=O)NCc1ccc(-c2noc(C(F)(F)F)n2)c(F)c1 [Compound 1.80]
≥ 80%: pest or weed control at 200 ppm [1] | pest or weed control at 200 ppm [2] | pest or weed control at 200 ppm [3] | inhibition of growth at 20 ppm [4]

CC(C)C(=O)NCCc1ccc(-c2noc(C(F)(F)F)n2)cc1 [Compound 1.83, 2-methyl-N-[2-[4-[5-(trifluoromethyl)-1,2,4-oxadiazol-3-yl]phenyl]ethyl]propanamide]
≥ 80%: pest or weed control at 200 ppm [1] | pest or weed control at 200 ppm [2] | pest or weed control at 200 ppm [3] | inhibition of growth at 20 ppm [4]

CCCC(=O)NCCc1ccc(-c2noc(C(F)(F)F)n2)cc1 [Compound 1.84, N-[2-[4-[5-(trifluoromethyl)-1,2,4-oxadiazol-3-yl]phenyl]ethyl]butanamide]
≥ 80%: pest or weed control at 200 ppm [1] | pest or weed control at 200 ppm [2] | pest or weed control at 200 ppm [3] | inhibition of growth at 20 ppm [4]

COCCC(=O)NCCc1ccc(-c2noc(C(F)(F)F)n2)cc1 [Compound 1.85, 3-methoxy-N-[2-[4-[5-(trifluoromethyl)-1,2,4-oxadiazol-3-yl]phenyl]ethyl]propanamide]
≥ 80%: pest or weed control at 200 ppm [1] | pest or weed control at 200 ppm [2] | pest or weed control at 200 ppm [3] | inhibition of growth at 20 ppm [4]

COCC(=O)NCCc1ccc(-c2noc(C(F)(F)F)n2)cc1 [Compound 1.86, 2-methoxy-N-[2-[4-[5-(trifluoromethyl)-1,2,4-oxadiazol-3-yl]phenyl]ethyl]acetamide]
≥ 80%: pest or weed control at 200 ppm [1] | pest or weed control at 200 ppm [2] | pest or weed control at 200 ppm [3] | inhibition of growth at 20 ppm [4]

CCC(C)C(=O)NCCc1ccc(-c2noc(C(F)(F)F)n2)cc1 (centres unmarked) [Compound 1.87, 2-methyl-N-[2-[4-[5-(trifluoromethyl)-1,2,4-oxadiazol-3-yl]phenyl]ethyl]butanamide]
≥ 80%: pest or weed control at 200 ppm [1] | pest or weed control at 200 ppm [2] | pest or weed control at 200 ppm [3] | inhibition of growth at 20 ppm [4]

COCCCC(=O)NCCc1ccc(-c2noc(C(F)(F)F)n2)cc1 [Compound 1.89, 4-methoxy-N-[2-[4-[5-(trifluoromethyl)-1,2,4-oxadiazol-3-yl]phenyl]ethyl]butanamide]
≥ 80%: pest or weed control at 200 ppm [1] | pest or weed control at 200 ppm [2] | pest or weed control at 200 ppm [3] | inhibition of growth at 20 ppm [4]
